For ten compounds, IC50 results are on record in patent US9242937B2, “Pharmaceutically active disubstituted pyridine derivatives” (Bayer Intellectual Property GmbH, priority 2011, dated 2016).

Experiment [1] relates to NF-kappaB reporter gene activation in HEK293 cells. Nature of the experiment: NF-kappaB reporter assay. The class given is cell-based. The settings on record: Homo sapiens, pNFkBluc reporter, 20 ng/ml TNF alpha, 5 h, read-out: NF-kappaB activation (activity range), IC50. Here is the method:
Cells were maintained in RPMI cell culture medium+glutamine (PAN Biotech GmbH, Aidenbach, Germany) supplemented with 10% fetal calf serum (PAA Laboratories GmbH, Pasching, Austria) and grown at 37° C., 5% CO2. HEK293 cells grown to 50% confluence were transfected with the Amaxa® Cell Line Nucleofector® Kit V (Lonza, Basel, Switzerland, catalog # VCA-1003). Transfections were performed according to manufacturer's optimized protocol for transfection of HEK293 cells. In brief, 2×10^5 cells were transfected with 5 μg highly purified plasmid DNA. Cells were transfected with a NF-kappa B reporter plasmid (pNFkBluc), pTALluc for control, or pMAXGFP for transfection control. After transfection, cells were taken up in 500 μL RPMI1640 cell culture medium, incubated for 1 h at 37° C., and 4.5 ml DMEM without phenol red were added per transfection. Transfected cells were seeded in 96 well plates (Greiner Bio-One, Frickenhausen, Germany, catalog #655098) with 100 μL cell suspension per well and incubated for 48 h. To each well, 100 μL DMEM with 2× concentrated compound diluted from 10 mM DMSO stocks, or 100 μL DMEM with 0.4% DMSO for control wells, was added. The compounds of general formula (I) summarized in Table 6 were used in this assay. Cells were stimulated with 20 ng/ml TNF alpha, and plates were incubated for 5 h at 37° C./5% CO2. Cell culture supernatants were removed to leave 100 μl medium per well, followed by addition of 100 μl Bright Glo luciferase assay reagent (Promega, Madison, Wis., USA, catalog # E2620), and shaking for 5 minutes in the dark. Luminescence was measured with a Victor Photospectrometer (Perkin Elmer, Waltham, Mass., USA). IC50 values were calculated with the software Excel Fit (IDBS, Guildford, UK) from 2-fold dilution series comprising at least 10 concentrations in duplicates.

For the next experiment, the target named is T1, CDK7/CyclinH/MAT1 (Homo sapiens, UniProt P50613).
T1 construct: purchased Carna Biosciences
Nature of the experiment: Lance Ultra KinaSelect Assay, CDK7. Format: biochemical. The note with it: ULight MBP substrate, ATP 25 μM; read-out: CDK7 LANCE assay (activity range), IC50. The method, then:
This protocol describes how the Lance Ultra KinaSelect Assay was performed to determine half maximal inhibitory concentration (IC50) of compounds of general formula (I) and CDK/Cyclin complexes. The principle behind this enzymatic assay is based upon the phosphorylation of the ULight-Peptide Substrat. It is detected by using a specific EU-labeled anti-phospho peptide antibody. The binding of the Eu-labeled anti-phospho peptide antibody to the phosphorylated ULight labeled peptide gives rise to a FRET-signal. Binding of an inhibitor to the kinase prevents phosphorylation of the ULight-MBP Substrat, resulting in a loss of FRET.
The compounds of general formula (I) summarized in Table 5 were diluted from a 10 mM DMSO stock solution 1:10 in a total volume of 15 μL DMSO. This compound predilution was then serial diluted 1:3 over 8 steps in DMSO and briefly spun down. Each compound solution was now diluted 1:20 in Enzymatic Buffer (HEPES: 50 mM, pH: 7.5; MgCl2: 10 mM; EGTA: 1 mM; DTT: 2 mM; Tween-20: 0.01%), mixed thoroughly and spun down. For every sample, 2 μL of the diluted compound were mixed with 6 μL CDK/Cyclin/Substrat solution and 2 μL ATP solution in a well of a small volume 384 well plate (Corning Incorporated, Corning, N.Y., USA; order no. 3673). The CDK/Cyclin was diluted to the appropriate concentration (see Table 3) and the ATP concentration was adjusted to its […] for the CDK/Cyclin, which was 3 μM for CDK2/Cyclin A, 20 μM for CDK1/Cyclin B1, 25 μM for CDK7/Cyclin H and CDK9/Cyclin T1, 55 μM for CDK6/Cyclin D3, 90 μM for CDK4/Cyclin D1 and 125 μM for CDK9/Cyclin K. For negative controls, in each well 2 μL of DMSO solution (1% final DMSO assay concentration) was mixed with 6 μL substrate solution (50 nM ULight MBP final assay concentration) and 2 μL ATP solution (appropriate final concentration see Table 3). For positive controls, in each well 2 μL of DMSO solution (1% final DMSO assay concentration) was mixed with 6 μL CDK/Cyclin/Substrat (appropriate final concentration see Table 3) and 2 μL Tracer ATP solution (appropriate final concentration see Table 3). Positive and negative controls were calculated from at least 8 different sample wells. The 384 well plates were mixed in a Teleshaker plate mixer (Beckman Coulter, Brea, Calif., USA) at 2000 rpm for 40 sec, and incubated for 1 h at room temperature. Before reading, 10 μL the detection buffer (Lance Detection Buffer 1×; EDTA: […]; Eu-Anti-P-MBP: see Table 3) was added. The FRET signal was measured at 340 nm excitation, 665 nm and 615 nm emission (for the kinase tracer and LanthaScreen Eu-AB, respectively) with an Envision spectrophotometer (Perkin Elmer, Waltham, Mass., USA) with 50 μs delay and 300 μs integration time. IC50 values were determined from the sigmoidal dose response curves with the software Quattro Workflow (Quattro GmbH, Munich, Germany).
(TR-FRET usually uses a lanthanide donor and a delayed reading to cut background.)

T1 sequence (P50613 whole entry): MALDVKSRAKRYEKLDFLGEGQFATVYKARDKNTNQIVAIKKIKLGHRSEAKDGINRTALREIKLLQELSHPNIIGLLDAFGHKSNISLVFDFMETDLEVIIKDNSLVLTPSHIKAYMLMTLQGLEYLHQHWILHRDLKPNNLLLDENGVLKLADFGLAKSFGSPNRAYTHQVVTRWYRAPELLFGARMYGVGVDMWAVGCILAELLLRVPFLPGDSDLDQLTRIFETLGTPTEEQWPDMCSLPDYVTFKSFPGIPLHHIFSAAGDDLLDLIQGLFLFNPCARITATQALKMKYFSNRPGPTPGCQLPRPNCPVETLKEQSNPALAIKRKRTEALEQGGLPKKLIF
T1 sequence (P51946 whole entry partner): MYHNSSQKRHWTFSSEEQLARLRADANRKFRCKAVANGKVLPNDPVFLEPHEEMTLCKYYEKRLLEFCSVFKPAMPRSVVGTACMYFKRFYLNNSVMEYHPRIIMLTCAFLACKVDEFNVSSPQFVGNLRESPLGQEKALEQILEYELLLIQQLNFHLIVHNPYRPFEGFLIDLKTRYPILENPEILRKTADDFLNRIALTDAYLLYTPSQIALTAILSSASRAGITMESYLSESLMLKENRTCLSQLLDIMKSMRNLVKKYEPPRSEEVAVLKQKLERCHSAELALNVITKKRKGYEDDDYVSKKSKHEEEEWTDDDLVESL
T1 sequence (P51948 whole entry partner): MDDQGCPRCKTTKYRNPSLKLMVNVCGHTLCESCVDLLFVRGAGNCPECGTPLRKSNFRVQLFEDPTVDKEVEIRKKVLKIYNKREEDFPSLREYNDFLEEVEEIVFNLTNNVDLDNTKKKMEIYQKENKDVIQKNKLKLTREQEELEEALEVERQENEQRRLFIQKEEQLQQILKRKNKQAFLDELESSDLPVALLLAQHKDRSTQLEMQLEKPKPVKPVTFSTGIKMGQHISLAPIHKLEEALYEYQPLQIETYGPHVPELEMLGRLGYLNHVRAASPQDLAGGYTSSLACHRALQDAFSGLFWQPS

As for `COc1ccccc1-c1ccnc(Nc2ccccc2)c1` [Compound B1, 4-(2-Methoxyphenyl)-N-phenylpyridin-2-amine], the concentration for half-maximal inhibition (IC50) in experiment [1] was more than 10000 nM.
As for `COc1ccccc1-c1ccnc(Nc2cccc([N+](=O)[O-])c2)c1` [Compound C1, 4-(2-Methoxyphenyl)-N-(3-nitrophenyl)pyridin-2-amine], the IC50 in experiment [1] lay in the range of 1000 to 10000 nM.
For the compound `COc1ccccc1-c1ccnc(Nc2cccc(S(N)(=O)=O)c2)c1` [Compound D1, 3-[(4-(2-Methoxyphenyl)pyridin-2-yl)amino]benzenesulfonamide], the IC50 at CDK7/CyclinH/MAT1 was more than 10 µM; in experiment [1], 100 to 1000 nM.
The corresponding values for `COc1ccccc1-c1ccnc(Nc2ccc(S(N)(=O)=O)cc2)c1` [Compound E1, 4-[(4-(2-Methoxyphenyl)pyridin-2-yl)amino]benzenesulfonamide] are more than 10 µM and 1000 to 10000 nM.
For the compound `COc1ccccc1-c1ccnc(Nc2cccc(S(C)(=O)=O)c2)c1` [Compound F1, 4-(2-Methoxyphenyl)-N-(3-(methylsulfonyl)phenyl)pyridin-2-amine], the IC50 in experiment [1] was in the range of 1000 to 10000 nM.
In the case of `COc1cc(F)ccc1-c1ccnc(Nc2cccc(CS(N)(=O)=O)c2)c1` [Compound G1, [3-((4-(4-Fluoro-2-methoxyphenyl)pyridin-2-yl)amino)phenyl]-methanesulfonamide], the results for the IC50 (on CDK7/CyclinH/MAT1; in experiment [1]) were more than 10 µM and 100 to 1000 nM, respectively.
On to `COc1cc(F)ccc1-c1ccnc(Nc2cccc(CS(=O)(=O)N(C)C)c2)c1` [Compound G3, 1-[3-((4-(4-Fluoro-2-methoxyphenyl)pyridin-2-yl)amino)phenyl]-N,N-dimethylmethanesulfonamide], for which, on CDK7/CyclinH/MAT1, the IC50 is more than 10 µM.
The same measure, in the same setting: then `COc1cc(F)ccc1-c1ccnc(Nc2cccc(NS(C)(=O)=O)c2)c1` [Compound J1, N-[3-((4-(4-Fluoro-2-methoxyphenyl)pyridin-2-yl)amino)phenyl]-methanesulfonamide], with more than 10 µM; and `COc1cc(F)ccc1-c1ccnc(Nc2cccc(NC(C)=O)c2)c1` [Compound J2, N-[3-((4-(4-Fluoro-2-methoxyphenyl)pyridin-2-yl)amino)phenyl]-acetamide], with more than 10 µM.
As to `CCCNS(=O)(=O)Cc1cccc(Nc2cc(-c3ccc(F)cc3OC)ccn2)c1` [Compound K1, 1-[3-((4-(4-Fluoro-2-methoxyphenyl)pyridin-2-yl)amino)phenyl]-N-propylmethanesulfonamide], the IC50 at CDK7/CyclinH/MAT1 is more than 10 µM.

Broadly, the IC50 is the concentration needed to halve the response being measured.
